Results on one molecule are retold here after paper PMC7714403 (JCI Insight, 2020).

Each structure is given as a SMILES string.

For experiment [1], the system named is MOLM13-Luc+ cells. Kind of experiment: MOLM13-Luc+ xenograft model. In kind it is in vivo, NSG mice. Particulars: 3 weeks. The procedure:
Engraftment and growth of leukemic cells were monitored by noninvasive bioluminescence imaging in cell line xenograft models, as previously done ([47]). Details on the cell engraftment and dosing in mouse models are provided in the Supplemental Methods.
Cell viability of primary samples
HS5-GFP human bone marrow stromal cells were plated and cultured for 72 hours to near confluence.
MOLM13 cells were then seeded onto HS5-GFP cells to establish a co-culture. Twenty-four hours later, cells were treated with increasing concentrations of drug for an additional 72 hours. MOLM13 and HS5-GFP cells were then separated and MTT assay s were performed for cell viability assessment of each cell population.
For murine or human primary AML cells, 100,000 cells/well were plated in a 96-well plate and treated with increasing concentrations of drug. Cell viability, via trypan blue, was measured every 24 hours. If the viability fell below 50% or at 72 hours of treatment, whichever came earlier, cell viability of each plate was measured via CellTiter-Glo. Primary human AML cells were obtained from the OSUCCC Leukemia Tissue Bank Shared […]
Primary AML samples were analyzed by targeted gene sequencing of 80 genes, as previously described (1). Samples were pooled and analyzed on a MiSeq system using the Illuminia MiSeq Reagent Kit v3. […]
Luc+ or MOLM13-Res -Luc+ cells, 0.5 million OCI-AML3 -Luc+ cells, and 10,000 Ba/F3-FLT3-ITD/F691L-GFP+ cells. Weekly tumor engraftment of cell line xenograft models were assessed after injection of D-luciferin (150mg/kg i.p.; Gold Biotechnology, Inc, St. Louis, MO) on Xenogen IVIS-200 imaging system (Perkin Elmer, Waltham, MA) or GFP monitoring by peripheral blood via BD LSR II flow cytometer (BD Biosciences, San Jose, CA). Signal intensity was analyzed using Living Image Software (PerkinElmer) or FlowJo v10.0.08 software (FlowJo, LLC, Ashland, OR). […]
At indicated time points, cells were collected and washed with PBS. CD11b expression was measured using anti-CD11b -APC antibody (BioLegend, San Diego, CA). […]

Experiment [2] addresses MAPKAPK3 (Homo sapiens, UniProt Q16644). As to the kind of experiment: KiNativ, OCI cells live cell. It is filed as cell-based. Particulars: 2 h, labeling site ATP Loop, peptide […].
For experiment [3], the target named is p38a (Homo sapiens, UniProt Q16539). Kind of experiment: KiNativ, OCI cells live cell. It is filed as cell-based.
For experiment [4], the target named is PI4KA (Homo sapiens, UniProt P42356). As to the kind of experiment: KiNativ, OCI cells live cell. Particulars: 2 h, labeling site ATP, peptide […]. It is filed as cell-based.
In experiment [5] the target is T1, ULK1 (Homo sapiens, UniProt O75385).
T1 sequence (O75385 1-1050): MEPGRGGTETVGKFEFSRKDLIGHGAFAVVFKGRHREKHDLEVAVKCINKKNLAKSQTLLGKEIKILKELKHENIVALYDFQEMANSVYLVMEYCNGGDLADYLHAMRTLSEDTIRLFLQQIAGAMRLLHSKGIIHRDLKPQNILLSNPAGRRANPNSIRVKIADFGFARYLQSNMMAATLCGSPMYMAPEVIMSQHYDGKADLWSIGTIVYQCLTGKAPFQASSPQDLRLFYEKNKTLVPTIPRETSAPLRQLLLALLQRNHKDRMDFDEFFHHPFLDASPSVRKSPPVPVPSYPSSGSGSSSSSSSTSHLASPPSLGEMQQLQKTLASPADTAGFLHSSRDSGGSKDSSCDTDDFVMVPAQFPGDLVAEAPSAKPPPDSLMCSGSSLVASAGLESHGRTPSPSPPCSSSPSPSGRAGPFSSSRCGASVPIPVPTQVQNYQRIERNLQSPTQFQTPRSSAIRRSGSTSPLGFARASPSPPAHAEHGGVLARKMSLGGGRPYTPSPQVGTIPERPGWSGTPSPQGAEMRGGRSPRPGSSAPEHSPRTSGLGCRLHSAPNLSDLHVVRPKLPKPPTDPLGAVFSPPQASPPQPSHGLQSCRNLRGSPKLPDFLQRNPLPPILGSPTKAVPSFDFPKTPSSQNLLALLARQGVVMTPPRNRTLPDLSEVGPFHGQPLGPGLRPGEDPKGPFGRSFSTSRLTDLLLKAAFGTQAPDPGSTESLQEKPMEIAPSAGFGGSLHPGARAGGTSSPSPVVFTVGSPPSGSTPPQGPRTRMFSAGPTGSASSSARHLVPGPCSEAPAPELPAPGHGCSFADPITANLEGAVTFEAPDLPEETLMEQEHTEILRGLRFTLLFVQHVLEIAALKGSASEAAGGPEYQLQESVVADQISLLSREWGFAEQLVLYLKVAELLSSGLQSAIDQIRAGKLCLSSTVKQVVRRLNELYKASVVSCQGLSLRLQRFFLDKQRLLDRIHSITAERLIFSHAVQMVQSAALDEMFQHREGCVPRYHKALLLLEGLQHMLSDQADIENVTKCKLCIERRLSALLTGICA
As to the kind of experiment: KiNativ, OCI cells live cell. In kind it is cell-based.

p38a, sequence (Q16539 whole entry): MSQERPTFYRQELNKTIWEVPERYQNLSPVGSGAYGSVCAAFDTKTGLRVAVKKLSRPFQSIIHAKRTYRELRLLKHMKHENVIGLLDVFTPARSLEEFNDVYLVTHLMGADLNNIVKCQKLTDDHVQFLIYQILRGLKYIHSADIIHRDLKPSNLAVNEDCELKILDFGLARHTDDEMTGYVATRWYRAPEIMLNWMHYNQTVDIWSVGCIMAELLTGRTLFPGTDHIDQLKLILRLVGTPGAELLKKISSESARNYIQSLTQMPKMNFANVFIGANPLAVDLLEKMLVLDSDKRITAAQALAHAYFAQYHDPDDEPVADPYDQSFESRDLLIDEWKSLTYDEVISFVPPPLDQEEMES
PI4KA, sequence (P42356 whole entry): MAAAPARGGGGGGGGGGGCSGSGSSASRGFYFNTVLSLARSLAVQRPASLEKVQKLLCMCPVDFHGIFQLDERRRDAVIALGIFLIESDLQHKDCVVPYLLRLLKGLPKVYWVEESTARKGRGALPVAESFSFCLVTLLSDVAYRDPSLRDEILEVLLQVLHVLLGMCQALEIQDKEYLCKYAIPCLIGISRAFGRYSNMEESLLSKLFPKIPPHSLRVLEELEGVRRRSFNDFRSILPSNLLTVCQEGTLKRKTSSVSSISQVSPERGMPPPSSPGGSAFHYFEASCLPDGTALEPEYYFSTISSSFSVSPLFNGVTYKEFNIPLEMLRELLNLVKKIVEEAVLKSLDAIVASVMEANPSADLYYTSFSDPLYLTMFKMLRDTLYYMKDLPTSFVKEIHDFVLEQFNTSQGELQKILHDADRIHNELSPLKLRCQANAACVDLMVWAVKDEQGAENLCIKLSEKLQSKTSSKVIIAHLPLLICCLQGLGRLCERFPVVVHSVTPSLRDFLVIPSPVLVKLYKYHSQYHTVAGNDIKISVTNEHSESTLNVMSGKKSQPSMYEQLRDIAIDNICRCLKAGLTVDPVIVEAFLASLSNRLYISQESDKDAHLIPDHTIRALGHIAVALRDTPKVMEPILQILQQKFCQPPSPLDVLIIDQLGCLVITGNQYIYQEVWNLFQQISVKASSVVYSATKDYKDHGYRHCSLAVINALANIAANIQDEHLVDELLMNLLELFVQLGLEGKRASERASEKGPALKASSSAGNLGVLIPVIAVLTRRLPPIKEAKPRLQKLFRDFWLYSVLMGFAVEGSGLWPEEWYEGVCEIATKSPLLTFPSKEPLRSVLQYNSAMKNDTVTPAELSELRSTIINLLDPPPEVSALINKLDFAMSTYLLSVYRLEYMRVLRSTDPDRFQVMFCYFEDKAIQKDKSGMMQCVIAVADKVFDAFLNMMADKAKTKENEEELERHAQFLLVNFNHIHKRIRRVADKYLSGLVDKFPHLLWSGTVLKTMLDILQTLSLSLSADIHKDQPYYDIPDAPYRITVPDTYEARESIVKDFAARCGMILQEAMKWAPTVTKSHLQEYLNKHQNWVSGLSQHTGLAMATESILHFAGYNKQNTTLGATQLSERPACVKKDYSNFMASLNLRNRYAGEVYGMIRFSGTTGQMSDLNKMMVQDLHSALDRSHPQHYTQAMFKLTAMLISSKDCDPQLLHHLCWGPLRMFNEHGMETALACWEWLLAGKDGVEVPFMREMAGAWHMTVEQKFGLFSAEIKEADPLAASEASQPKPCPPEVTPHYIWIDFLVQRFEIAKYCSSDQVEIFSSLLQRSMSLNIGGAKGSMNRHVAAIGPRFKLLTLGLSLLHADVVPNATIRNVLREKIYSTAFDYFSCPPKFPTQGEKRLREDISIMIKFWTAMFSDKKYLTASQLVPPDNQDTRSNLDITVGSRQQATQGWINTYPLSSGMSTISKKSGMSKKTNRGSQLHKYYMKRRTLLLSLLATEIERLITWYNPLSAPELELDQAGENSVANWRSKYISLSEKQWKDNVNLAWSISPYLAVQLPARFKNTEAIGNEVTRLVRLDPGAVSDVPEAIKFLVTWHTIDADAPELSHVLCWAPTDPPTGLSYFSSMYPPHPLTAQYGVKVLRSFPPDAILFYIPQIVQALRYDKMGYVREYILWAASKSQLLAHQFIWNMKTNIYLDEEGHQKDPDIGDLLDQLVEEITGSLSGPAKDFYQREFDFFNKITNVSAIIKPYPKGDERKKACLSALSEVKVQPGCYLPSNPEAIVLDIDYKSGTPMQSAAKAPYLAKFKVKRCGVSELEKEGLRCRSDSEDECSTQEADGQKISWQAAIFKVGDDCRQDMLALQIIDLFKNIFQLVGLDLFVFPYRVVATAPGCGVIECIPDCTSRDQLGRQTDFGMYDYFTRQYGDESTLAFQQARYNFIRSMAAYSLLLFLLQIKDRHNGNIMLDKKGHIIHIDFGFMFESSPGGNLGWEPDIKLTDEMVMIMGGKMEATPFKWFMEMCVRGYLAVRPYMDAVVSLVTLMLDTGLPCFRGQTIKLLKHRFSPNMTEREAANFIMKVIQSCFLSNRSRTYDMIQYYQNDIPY
MAPKAPK3, sequence (Q16644 whole entry): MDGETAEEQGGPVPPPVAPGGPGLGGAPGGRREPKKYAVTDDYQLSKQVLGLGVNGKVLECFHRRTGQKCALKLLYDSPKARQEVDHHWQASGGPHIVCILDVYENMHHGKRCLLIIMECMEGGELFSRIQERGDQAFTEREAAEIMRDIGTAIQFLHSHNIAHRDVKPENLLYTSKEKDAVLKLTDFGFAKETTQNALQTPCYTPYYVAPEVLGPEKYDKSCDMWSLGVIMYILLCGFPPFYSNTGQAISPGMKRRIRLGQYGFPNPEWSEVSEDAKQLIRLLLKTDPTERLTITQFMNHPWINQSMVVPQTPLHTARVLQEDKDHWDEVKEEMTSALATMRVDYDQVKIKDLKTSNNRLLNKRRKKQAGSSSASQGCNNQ

One may read the inhibition as the relative decrease from the control value, in per cent. As usually defined, the Inhibition is the change of the read-out against control, counted positive when it falls. As for `CN1CCN(Cc2ccc(Nc3ncc(Cl)c(Nc4ccccc4S(=O)(=O)N(C)C)n3)cc2)CC1` [TP-0903], the “Survival prolonged compared with vehicle” value is 13 days in experiment [1] (60 mg/kg 5 days a week) and 17 days in experiment [1] (60 mg/kg once daily continuously). Further, the “Leukemia outgrowth (bioluminescence)” value in experiment [1] (60 mg/kg) is recorded as “suppressed leukemia outgrowth”. Moreover, the inhibition at 0.1 µM in experiment [2] is -28.5%; in experiment [4], -14.6%. The Inhibition is -2.7% in experiment [3] (labeling site Lys2, peptide DLKPSNLAVNEDCELK); 5.6% in experiment [3] (labeling site Other, peptide QELNKTIWEVPER); 23.3% in experiment [5] (labeling site Lys1, peptide HDLEVAVKCINKK); 59.5% in experiment [5] (labeling site Lys2, peptide DLKPQNILLSNPAGR).
